Experimental data taken from patent US11840686B2, “Modulation of prekallikrein (PKK) expression” (Ionis Pharmaceuticals, Inc., priority 2013, dated 2023).
Strand notation (5' to 3'): a small letter for the sugar, then the base; units joined by * are phosphorothioate-linked, units joined directly phosphodiester-linked; [ ] holds rarer units or linkages, { } end groups; capitals alone tell only the bases. e = 2'-O-(2-methoxyethyl) (MOE); [5mC] = 5-methylcytosine; d = 2'-deoxy (DNA)

Legend:
[1] = system: captopril and ISIS 461756-induced vascular permeability; assay: Evans Blue vascular permeability in captopril and ISIS 461756-induced angioedema mouse models (Example 11); type: in vivo; conditions: for OD600 nm of Evans Blue dye, Colons / OD600 nm of Evans Blue dye, Ears / OD600 nm of Evans Blue dye, Feet / OD600 nm of Evans Blue dye, Intestines: captopril Yes
Source text: Hereditary angioedema (HAE) is characterized by local swelling and increase in vascular permeability in subcutaneous tissues (Morgan, B. P. N. Engl. J. Med. 363: 581-83, 2010). It is caused by a deficiency of the C1 inhibitor, a protein of the complement system. Two mouse models were used in this study including an established mouse model of C1-INH deficiency and a captopril-induced edema model, both of which cause vascular permeability, a hallmark of HAE. Reversal of vascular permeability is accompanied by increased plasma levels of high molecular weight kininogen (HMWK).
In the first model, angioedema was induced by treatment with Captopril, a known antihypertensive agent, which increases vascular permeability in mice and replicates the pathology of hereditary angioedema.
In the second model, angioedema was induced by treatment with ISIS 461756, an antisense oligonucleotide which targets murine C1 inhibitor mRNA, which increases vascular permeability in mice and replicates the pathology of hereditary angioedema. ISIS 461756 (SEQ ID NO: 2245; […]) is a 5-10-5 MOE gapmer targeting nucleosides 1730-1749 of NM_009776.3 (SEQ ID NO: 2243).
The effect of HOE-140 and ISIS 482584, an antisense oligonucleotide inhibitor of PKK, were evaluated in the Captopril and ISIS 461756-induced mouse models of vascular permeability. Some of the murine groups were treated with HOE-140, a selective antagonist of the bradykinin B2 receptor, which blocks vasodilation and vascular permeability (Cruden and Newby, Expert Opin. Pharmacol. 9: 2383-90, 2008). Other mice were treated with ISIS 482584, which inhibits PKK mRNA expression. The effect of treatment with HOE-140 was compared with the effect of treatment with ISIS 482584.
Group 1 consisted of 4 C57BL/6J-Tyrc-2J mice treated with PBS administered subcutaneously twice a week for 4 weeks. No other treatment was administered to Group 1 which served as a control group to measure the basal level of vascular permeability.
Group 2 consisted of 8 C57BL/6J-Tyrc-2J mice treated with PBS administered subcutaneously twice a week for 4 weeks. At the end of the treatment, the mice were intraperitoneally administered 20 μg of captopril. Group 2 served as a PBS control group for captopril-induced vascular permeability.
(§1) Group 3 consisted of 8 C57BL/6J-Tyrc-2J mice treated with PBS administered subcutaneously twice a week for 4 weeks. On day 14, the mice were treated with 50 mg/kg of the antisense oligonucleotide targeting C1 inhibitor, ISIS 461756, administered subcutaneously twice a week for 2 weeks. At the end of the treatment period, the mice were intraperitoneally administered 20 μg of captopril. Group 3 served as a PBS control group for captopril and ISIS 461756-induced vascular permeability.
Group 4 consisted of 8 C57BL/6J-Tyrc-2J mice treated with PBS administered subcutaneously twice a week for 4 weeks. On day 14, the mice were treated with 50 mg/kg of the antisense oligonucleotide targeting C1 inhibitor, ISIS 461756, administered subcutaneously twice a week for 2 weeks. At the end of the treatment period, the mice were intraperitoneally administered 20 μg of captopril. The mice were then also intraperitoneally administered 30 μg of HOE-140. Group 4 served as a positive control for inhibition of vascular permeability with HOE-140.
as §1, with “5” for “3”, “40 mg/kg of control oligonucleotide ISIS 141923, a 5-10-5 MOE gapmer with no known murine target, ([…]; SEQ ID NO: 2246)” for “PBS”, “a” for “a PBS”, “permeability. […]” for “permeability.”

[2] = system: captopril-induced vascular permeability; assay: Dose-dependent effect on captopril-induced vascular permeability, Evans Blue OD600 (Example 13); type: in vivo, mouse; conditions: for OD600 nm of Evans Blue dye, Colon / OD600 nm of Evans Blue dye, Ears / OD600 nm of Evans Blue dye, Feet / OD600 nm of Evans Blue dye, Intestine: captopril Yes
Experimental: The effect of varying doses on ISIS 482584 on captopril-induced vascular permeability was evaluated.
Group 1 consisted of 4 mice and was treated with PBS administered subcutaneously twice a week for 3 weeks. No other treatment was administered to Group 1 which served as a control group to measure the basal levels of vascular permeability.
Group 2 consisted of 8 mice and was treated with PBS administered subcutaneously twice a week for 3 weeks. At the end of the treatment period, the mice were intraperitoneally administered 20 μg of captopril. Group 2 served as the control group for captopril-induced vascular permeability.
Group 3 consisted of 4 mice and was treated with PBS administered subcutaneously twice a week for 3 weeks. At the end of the treatment period, the mice were intraperitoneally administered 20 μg of captopril. The mice were also intraperitoneally administered 30 μg of Icatibant (HOE-140). […] served as a positive control for inhibition of captopril-induced vascular permeability.
Groups 4, 5, 6, 7, 8, and 9 consisted of 8 mice each and were treated with 2.5 mg/kg, 5 mg/kg, 10 mg/kg, 20 mg/kg, 40 mg/kg, or 80 mg/kg (corresponding to 5 mg/kg, 10 mg/kg, 20 mg/kg, 40 mg/kg, 80 mg/kg, or 160 mg/kg per week), respectively of ISIS 482584 administered subcutaneously twice a week for 3 weeks. At the end of the treatment period, the mice of all the groups were intraperitoneally administered 20 μg of captopril. Groups 4-9 served as the experimental treatment groups for examining the effect of varying doses of ISIS 482584 on captopril-induced vascular permeability.
All the groups were then injected with 30 mg/kg of Evans Blue solution in the tail vein. The mice were sacrificed 30 min after the Evans Blue solution administration and colons, feet, ears, and intestines were harvested. Blood samples were taken through cardiac puncture.
The harvested tissues were placed in formamide solution overnight to leach out the Evans Blue dye. The formamide solution containing feet and ear tissue was heated to 55° C. and left overnight.

[3] = ISIS 461756 Yes, ISIS oligonucleotides 40 mg/kg sc twice a week 4 weeks, HOE-140 30 μg ip
[4] = ISIS 461756 No, 40 mg/kg sc twice a week 4 weeks
[5] = dose 5 mg/kg, sc twice a week 3 weeks
[6] = dose 10 mg/kg, sc twice a week 3 weeks
[7] = dose 20 mg/kg, sc twice a week 3 weeks
[8] = dose 40 mg/kg, sc twice a week 3 weeks
[9] = dose 80 mg/kg, sc twice a week 3 weeks
[10] = dose 160 mg/kg, sc twice a week 3 weeks

Compound: NC(N)=NCCC[C@@H](N)C(=O)N[C@@H](CCCN=C(N)N)C(=O)N1CCC[C@H]1C(=O)N1C[C@H](O)C[C@H]1C(=O)NCC(=O)N[C@@H](Cc1cccs1)C(=O)N[C@@H](CO)C(=O)N1Cc2ccccc2C[C@@H]1C(=O)N1[C@H](C(=O)N[C@@H](CCCN=C(N)N)C(=O)O)C[C@@H]2CCCC[C@@H]21 [HOE-140, Icatibant, reference compound]
- OD600 nm of Evans Blue dye, Colons [1, 3]: 0.14
- OD600 nm of Evans Blue dye, Ears [1, 3]: 0.09
- OD600 nm of Evans Blue dye, Feet [1, 3]: 0.07
- OD600 nm of Evans Blue dye, Intestines [1, 3]: 0.18
- OD600 nm of Evans Blue dye, Colon ([2]; HOE-140 30 μg ip): 0.15
- OD600 nm of Evans Blue dye, Ears ([2]; HOE-140 30 μg ip): 0.04
- OD600 nm of Evans Blue dye, Feet ([2]; HOE-140 30 μg ip): 0.03
- OD600 nm of Evans Blue dye, Intestine ([2]; HOE-140 30 μg ip): 0.10

Compound: ISIS 482584: 5-10-5 MOE gapmer targeting murine PKK, GGCATATTGGTTTTTGGAAT; SEQ ID NO: 2244 (antisense eG*eG*e[5mC]*eA*eT*dA*dT*dT*dG*dG*dT*dT*dT*dT*dT*eG*eG*eA*eA*eT)
- vascular permeability ([1]; 40 mg/kg s.c. twice a week for 4 weeks, mice treated with captopril or captopril and ISIS 461756, vs PBS controls): prevents vascular permeability
- OD600 nm of Evans Blue dye, Colons [1, 4]: 0.27
- OD600 nm of Evans Blue dye, Ears [1, 4]: 0.14
- OD600 nm of Evans Blue dye, Feet [1, 4]: 0.07
- OD600 nm of Evans Blue dye, Intestines [1, 4]: 0.30
- OD600 nm of Evans Blue dye, Colons [1, 3]: 0.21
- OD600 nm of Evans Blue dye, Ears [1, 3]: 0.06
- OD600 nm of Evans Blue dye, Feet [1, 3]: 0.07
- OD600 nm of Evans Blue dye, Intestines [1, 3]: 0.34
- OD600 nm of Evans Blue dye, Colon [2, 5]: 0.41
- OD600 nm of Evans Blue dye, Ears [2, 5]: 0.05
- OD600 nm of Evans Blue dye, Feet [2, 5]: 0.10
- OD600 nm of Evans Blue dye, Intestine [2, 5]: 0.17
- OD600 nm of Evans Blue dye, Colon [2, 6]: 0.41
- OD600 nm of Evans Blue dye, Ears [2, 6]: 0.05
- OD600 nm of Evans Blue dye, Feet [2, 6]: 0.10
- OD600 nm of Evans Blue dye, Intestine [2, 6]: 0.19
- OD600 nm of Evans Blue dye, Colon [2, 7]: 0.40
- OD600 nm of Evans Blue dye, Ears [2, 7]: 0.07
- OD600 nm of Evans Blue dye, Feet [2, 7]: 0.11
- OD600 nm of Evans Blue dye, Intestine [2, 7]: 0.20
- OD600 nm of Evans Blue dye, Colon [2, 8]: 0.36
- OD600 nm of Evans Blue dye, Ears [2, 8]: 0.05
- OD600 nm of Evans Blue dye, Feet [2, 8]: 0.10
- OD600 nm of Evans Blue dye, Intestine [2, 8]: 0.20
- OD600 nm of Evans Blue dye, Colon [2, 9]: 0.21
- OD600 nm of Evans Blue dye, Ears [2, 9]: 0.03
- OD600 nm of Evans Blue dye, Feet [2, 9]: 0.04
- OD600 nm of Evans Blue dye, Intestine [2, 9]: 0.17
- OD600 nm of Evans Blue dye, Colon [2, 10]: 0.26
- OD600 nm of Evans Blue dye, Ears [2, 10]: 0.05
- OD600 nm of Evans Blue dye, Feet [2, 10]: 0.10
- OD600 nm of Evans Blue dye, Intestine [2, 10]: 0.15
- captopril-induced vascular permeability ([2]; higher doses (Groups 4, 5, and 6) vs PBS control group (Group 2)): reduced levels of captopril-induced vascular permeability
